According to patent US4695576A, “L-N-n-propylpipecolic acid-2,6-xylidide” (priority 1985, dated 1987):

Assays:
[1] = tested on: peripheral nerve endings of the epidermis; assay: Intracutaneous wheals, infiltration anesthesia on forearms of man; assay type: in vivo; details: 12 healthy volunteers, pinprick
Excerpt: By use of intracutaneous wheals it is possible to measure the analgesic effect of an anesthetic on the peripheral nerve endings of the epidermis.
This technique gives information about:
(1) The duration of anesthesia.
^1 Infiltration anesthesia on forearms of man. The test solutions wer
injected intracutaneously on the dorsum of the forearms of 12 healthy
volunteers, 20-25 years old. Three wheals were made on each arm in a
rotating system in a doublebind fashion. The local anesthetic effect was
tested using a pinprick technique. The "duration of anesthesia" was
defined as the time during which none out of six pinpricks into the wheal
was felt. The method has been described by Dhuner et al. (1972). […]

[2] = tested on: ulnar volar nerves; assay: Finger blockade, digital nerve blocks in man; assay type: in vivo; details: for Time of onset, finger blockade: time from injection to complete analgesia
Experimental: ^2 Digital nerve blocks in man. The test solutions were injected to
block the ulnar volar nerves on the 2nd and 4th fingers of the same
volunteers who had participated in the intracutaneous wheal tests
described above. The tests were carried out in a double blind fashion in
rotating system, so that each solution was used with equal frequency on
each of the blocked fingers. A total of for injections 1.0 ml per
injection, was done in each subject. One week later the procedure was
repeated in the same subjects using the remaining test solutions. This
method has been described by Dhuner et al. (1972) (for citation see Table
2 footnote 1). To measure the efficacy and duration of the blocks, the
individual fingers were pricked rapidly 10 times with a needle algesimete
and the number of painful pricks noted. Each finger was tested every five
minutes until complete recovery. The time of complete anesthesia has been
called "duration of anesthesia".
*i.e. the time from injection to complete analgesia?
**i.e. the number of successful anesthesias of total number of
anesthesias performed (no anesthesia is possible if the ulnar volar nerve
are not contacted by the anesthetic).

[3] = tested on: tissue; assay: Tissue toxicity limits (Trypan blue test, threshold of tissue irritancy); assay type: in vivo; details: in vivo
Excerpt: The toxicity of the homologous series of N-alkylpipecolic acid-2,6-xylidides increases step wise and quickly with the lengthening of the alkyl chain. This is manifest from Table 1 set forth below, which compares racemic mixtures of alkyl homologues having from 1 to 5 carbon atoms.
*Trypan blue test; Hoppe et al. (1950), 39, 147-151 "Use of Trypan Blue
and Rabbit Eye Tests For Irritation", J. Amer. Pharm. Assoc. (Scient.
Ed.), the values are approximate threshold values of tissue irritancy.

[4] = tested on: skin; assay: Skin temperature measurements within intracutaneous wheals; assay type: in vivo, man; details: for Temperature Difference (T1 wheal vs T2 controls) / T1 Intracutaneous Wheal temperature: HCl-salt, 10 minutes after injection; for T1 Intracutaneous Wheal temperature: mean of 6 wheals
Experimental: The mean value of 6 wheals for each substance forms the basis for the values. The control values, however, represent the mean value obtained from 4 different sites measured outside the wheals 90 degrees apart and 2 centimeters from the wheal's center.
In the temperature measurements, an Oriel temperature apparatus* has been used. This is battery driven and is connected to a detector (diameter, 2.5 mm) and has an accuracy of ±0.1° C. The temperature of the skin is measured by pressing the detector against the skin with a pressure of 100 grams. It is retained against the skin until a constant temperature is obtained.
In Table 4, T1 is the measurement obtained at the center of the wheal, and T2 is the average of four measurements taken 90 degrees apart outside of the wheal and within 2 centimeters of the wheal's center.

[5] = Anesthetic activity/potency comparison; assay type: in vivo; details: comparison within homologous series
[6] = tested on: tissue; details: in vivo; cited from earlier work

With `CCCCN1CCCC[C@H]1C(=O)Nc1c(C)cccc1C` [4 L] as the compound, how does the “Analgesia-duration, intracutaneous wheals” value ([1]; Conc. 0.25%) read?
The value was 76 ± 10 min.

And the “Analgesia-duration, finger blockade” value ([2]; Concentration 0.25%)?
Its value is 259 ± 37 min.

What about the “Frequency (successful anesthesias of total performed)” value (from here on “Frequency”) ([2]; Concentration 0.25%) of the same compound?
Its value is 13/20.

And the “Time of onset, finger blockade” value ([2]; Concentration 0.25%)?
Its value is 13 ± 3 min.

Which “Analgesia-duration, intracutaneous wheals” value ([1]; Conc. 0.5%) does the source give for `Cc1cccc(C)c1NC(=O)C1CCCCN1C` (racemic) [1 R, N--methylpipecolic acid-2,6-xylidide] here?
The value was 65 ± 9 min.

And the “Analgesia-duration, finger blockade” value ([2]; Concentration 1.0%)?
Its value is 102 ± 22 min.

What about the “Frequency” value ([2]; Concentration 1.0%) of the same compound?
Its value is 13/13.

And the “Time of onset, finger blockade” value ([2]; Concentration 1.0%)?
The value was 7 ± 2 min.

And the “Tissue toxicity limits in %” value [3]?
The value was 3.5%.

What does the source list for `CCCN1CCCCC1C(=O)Nc1c(C)cccc1C` (stereo not drawn) [3 R, N--n-propylpipecolic acid 2,6-xylidide]?
Analgesia-duration, intracutaneous wheals ([1]; Conc. 0.25%): 84 ± 15 min; Temperature Difference (T1 wheal vs T2 controls) ([4]; Conc. 0.25%): -0.1 °C; T1 Intracutaneous Wheal temperature ([4]; Conc. 0.25%): 33.1 °C; effect on temperature over the wheal ([4]; comparison with lidocaine + adrenaline): practically no change in temperature; anesthetic effect [5]: so far below that of the racemic Bupivacaine; Analgesia-duration, finger blockade ([2]; Concentration 0.25%): 263 ± 31 min; Frequency (successful anesthesias of total performed) ([2]; Concentration 0.25%): 9/10; Time of onset, finger blockade ([2]; Concentration 0.25%): 10 ± 1 min; Tissue toxicity limits in % [3]: 1.5%

With `CCCCCN1CCCC[C@H]1C(=O)Nc1c(C)cccc1C` [5 L] as the compound, how does the tissue irritation [6] read?
Its tissue irritation is “irritating”.

For `Cc1cccc(C)c1NC(=O)[C@H]1CCCCN1C` [1 D], which “Analgesia-duration, intracutaneous wheals” value ([1]; Conc. 0.5%) is on record?
The value was 53 ± 8 min.

What about the “Analgesia-duration, finger blockade” value ([2]; Concentration 1.0%) of the same compound?
Its value is 71 ± 13 min.

What about the “Frequency” value ([2]; Concentration 1.0%) of the same compound?
Its value is 9/13.

What about the “Time of onset, finger blockade” value ([2]; Concentration 1.0%) of the same compound?
The value was 7 ± 2 min.

What does the source list for `CCN1CCCC[C@@H]1C(=O)Nc1c(C)cccc1C` [2 D]?
Analgesia-duration, intracutaneous wheals ([1]; Conc. 0.25%): 58 ± 11 min; Analgesia-duration, finger blockade ([2]; Concentration 0.5%): 112 ± 21 min; Frequency (successful anesthesias of total performed) ([2]; Concentration 0.5%): 10/13; Time of onset, finger blockade ([2]; Concentration 0.5%): 9 ± 3 min

Which tissue irritation [6] does the source give for `CCCCCN1CCCC[C@@H]1C(=O)Nc1c(C)cccc1C` [5 D] here?
The tissue irritation was “irritating”.

With `CCCN1CCCC[C@@H]1C(=O)Nc1c(C)cccc1C` [3 D] as the compound, how does the “Analgesia-duration, intracutaneous wheals” value ([1]; Conc. 0.25%) read?
Its value is 81 ± 14 min.

And the “Analgesia-duration, finger blockade” value ([2]; Concentration 0.25%)?
The value was 175 ± 21 min.

What about the “Frequency” value ([2]; Concentration 0.25%) of the same compound?
Its value is 7/8.

And the “Time of onset, finger blockade” value ([2]; Concentration 0.25%)?
The value was 14 ± 3 min.

Which results are given for `Cc1cccc(C)c1NC(=O)C1CCCCN1CCO` (stereo not drawn) [R--N--2-hydroxyethyl-pipecolic acid-2,6-xylidide]?
Temperature Difference (T1 wheal vs T2 controls) ([4]; Conc. 1.0%): +0.5 °C; T1 Intracutaneous Wheal temperature ([4]; Conc. 1.0%): 31.2 °C

Which results are given for `Cc1cccc(C)c1NC(=O)[C@@H]1CCCCN1C` [1 L]?
Analgesia-duration, intracutaneous wheals ([1]; Conc. 0.5%): 68 ± 11 min; Analgesia-duration, finger blockade ([2]; Concentration 1.0%): 124 ± 21 min; Frequency (successful anesthesias of total performed) ([2]; Concentration 1.0%): 11/12; Time of onset, finger blockade ([2]; Concentration 1.0%): 7 ± 3 min

For `CCCCN1CCCC[C@@H]1C(=O)Nc1c(C)cccc1C` [4 D], which “Analgesia-duration, intracutaneous wheals” value ([1]; Conc. 0.25%) is on record?
The value was 75 ± 11 min.

What about the “Analgesia-duration, finger blockade” value ([2]; Concentration 0.25%) of the same compound?
Its value is 243 ± 38 min.

And the “Frequency” value ([2]; Concentration 0.25%)?
Its value is 14/20.

And the “Time of onset, finger blockade” value ([2]; Concentration 0.25%)?
Its value is 15 ± 4 min.

Which “Analgesia-duration, finger blockade” value ([2]; Concentration 0.5%) does the source give for `CCN1CCCC[C@H]1C(=O)Nc1c(C)cccc1C` [2 L] here?
Its value is 141 ± 18 min.

What about the “Frequency” value ([2]; Concentration 0.5%) of the same compound?
The value was 11/13.

And the “Time of onset, finger blockade” value ([2]; Concentration 0.5%)?
Its value is 9 ± 2 min.
